Test system: Bovine cardiac myofibrils
Assay: In vitro model of dose-dependent myofibril ATPase modulation (AC1.4, pyruvate kinase/lactate dehydrogenase-coupled ATPase assay at pCa25)
Type: biochemical
Details: concentration at which ATPase activity was 1.4-fold higher than the bottom of the dose curve, mean of a minimum of two independent tests
Method in brief: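 Bovine cardiac myofibrils, detergent-treated; 0.25-1.0 mg/ml. Buffer: K-PIPES 12 mM, MgCl2 2 mM, DTT 1 mM, BSA 0.1 mg/ml, pH 6.80, 22° C; Ca2+ set by EGTA/CaCl2. ATP 1 mM, NADH/PEP-coupled, A340. 4-parameter fit; n≥2.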

AC1.4	SMILES
1.4045 µM	O=C(N[C@@H](c1cc(F)c(Cl)cc1F)C1COC1)[C@H]1C[C@@H](O)CN1C(=O)c1ccnc(C(F)(F)F)c1 [Example 399, (4R)-N-((R)-(4-chloro-2,5-difluorophenyl)(3-oxetanyl)methyl)-4-hydroxy-1-((2-(trifluoromethyl)-4-pyridinyl)carbonyl)-D-prolinamide]
1.4048 µM	N#CC1CN(S(=O)(=O)N2CCC[C@H](C(=O)N3CCC[C@@H]3C(=O)NCc3cnc(C(F)(F)F)nc3)C2)C1 [Example 400, 1-(((3S)-1-((3-cyano-1-azetidinyl)sulfonyl)-3-piperidinyl)carbonyl)-N-((2-(trifluoromethyl)-5-pyrimidinyl)methyl)-D-prolinamide]
1.378 µM	CS(=O)(=O)c1cccc(C(=O)N2CC=C[C@@H]2C(=O)N[C@@H](c2ccc(C(F)(F)F)cc2F)C2CC2)c1 [Example 401, (2R)-N-((R)-cyclopropyl(2-fluoro-4-(trifluoromethyl)phenyl)methyl)-1-(3-(methylsulfonyl)benzoyl)-2,5-dihydro-1H-pyrrole-2-carboxamide]
1.4025 µM	CCS(=O)(=O)c1cccc(C(=O)N2[C@@H](C(=O)N[C@@H](c3ccc(Cl)cc3)C3COC3)C[C@H]3C[C@H]32)c1 [Example 403, (1R,3R,5R)-N-((R)-(4-chlorophenyl)(3-oxetanyl)methyl)-2-(3-(ethylsulfonyl)benzoyl)-2-azabicyclo[3.1.0]hexane-3-carboxamide]
1.4525 µM	N#CC1CN(S(=O)(=O)N2CCC[C@H](C(=O)N3CCC[C@@H]3C(=O)N[C@H](CO)c3cccc(C(F)(F)F)c3)C2)C1 [Example 404, 1-(((3S)-1-((3-cyano-1-azetidinyl)sulfonyl)-3-piperidinyl)carbonyl)-N-((1S)-2-hydroxy-1-(3-(trifluoromethyl)phenyl)ethyl)-D-prolinamide]
1.4065 µM	C[C@H](O)[C@@H](NC(=O)[C@H]1C[C@H]2C[C@H]2N1C(=O)c1cccc(S(C)(=O)=O)c1)c1cc(F)c(Cl)cc1F [Example 405, (1R,3R,5R)-N-((1S,2S)-1-(4-chloro-2,5-difluorophenyl)-2-hydroxypropyl)-2-(3-(methylsulfonyl)benzoyl)-2-azabicyclo[3.1.0]hexane-3-carboxamide]
1.4675 µM	N#CC1CN(S(=O)(=O)N2CCC[C@H](C(=O)N3CCC[C@@H]3C(=O)NCc3cccc(Cl)c3F)C2)C1 [Example 406, N-(3-chloro-2-fluorobenzyl)-1-(((3S)-1-((3-cyano-1-azetidinyl)sulfonyl)-3-piperidinyl)carbonyl)-D-prolinamide]
1.479 µM	CN(C)S(=O)(=O)c1cccc(C(=O)N2CCC[C@@H]2C(=O)N[C@H](c2ccc(Cl)c(F)c2)C2CC2)c1 [Example 408, N-((S)-(4-chloro-3-fluorophenyl)(cyclopropyl)methyl)-1-(3-(dimethylsulfamoyl)benzoyl)-D-prolinamide]
1.484 µM	O=C(N[C@@H](c1ccc(C(F)(F)F)cc1F)C1COC1)[C@H]1C[C@H]2C[C@H]2N1C(=O)c1cc(C(F)(F)F)ccn1 [Example 409, (1R,3R,5R)-N-((R)-(2-fluoro-4-(trifluoromethyl)phenyl)(3-oxetanyl)methyl)-2-((4-(trifluoromethyl)-2-pyridinyl)carbonyl)-2-azabicyclo[3.1.0]hexane-3-carboxamide]
1.4853 µM	N#CC1CN(S(=O)(=O)N2CCC[C@H](C(=O)N3CCC[C@@H]3C(=O)NCc3ccc(C(F)(F)F)nc3)C2)C1 [Example 410, 1-(((3S)-1-((3-cyano-1-azetidinyl)sulfonyl)-3-piperidinyl)carbonyl)-N-((6-(trifluoromethyl)-3-pyridinyl)methyl)-D-prolinamide]
1.495 µM	CC(C)(C#N)c1cccc(C(=O)N2[C@@H](C(=O)N[C@@H](c3ccc(C(F)(F)F)cc3F)C3COC3)C[C@H]3C[C@H]32)c1 [Example 412, (1R,3R,5R)-2-(3-(2-cyano-2-propanyl)benzoyl)-N-((R)-(2-fluoro-4-(trifluoromethyl)phenyl)(3-oxetanyl)methyl)-2-azabicyclo[3.1.0]hexane-3-carboxamide]
1.511 µM	N#CC1CN(S(=O)(=O)N2CCC[C@H](C(=O)N3CCC[C@@H]3C(=O)NCc3ccc(CF)cc3)C2)C1 [Example 413, 1-(((3S)-1-((3-cyano-1-azetidinyl)sulfonyl)-3-piperidinyl)carbonyl)-N-(4-(fluoromethyl)benzyl)-D-prolinamide]
1.515 µM	CC(C)c1cccc(C(=O)N2CCC[C@@H]2C(=O)N[C@@H](c2ccc(C(F)(F)F)cc2F)C2CC2)c1 [Example 414, N-((R)-cyclopropyl(2-fluoro-4-(trifluoromethyl)phenyl)methyl)-1-(3-(2-propanyl)benzoyl)-D-prolinamide]
1.522 µM	C[C@H](C(=O)N[C@H](C)c1ccc(C(F)(F)F)cc1)N(C)C(=O)[C@H]1CCCN(S(=O)(=O)N2CC(C#N)C2)C1 [Example 415, (3S)-1-((3-cyano-1-azetidinyl)sulfonyl)-N-methyl-N-((1R)-1-methyl-2-oxo-2-(((1R)-1-(4-(trifluoromethyl)phenyl)ethyl)amino)ethyl)-3-piperidinecarboxamide]
1.528 µM	CS(=O)(=O)c1cc(C(=O)N2C[C@@H](F)C[C@@H]2C(=O)N[C@@H](c2cc(F)c(C(F)(F)F)cc2F)C2CC2)ccn1 [Example 416, (4S)-N-((R)-cyclopropyl(2,5-difluoro-4-(trifluoromethyl)phenyl)methyl)-4-fluoro-1-((2-(methylsulfonyl)-4-pyridinyl)carbonyl)-D-prolinamide]
1.53 µM	COc1cc(C)ccc1CNC(=O)[C@H]1CCCN1C(=O)[C@H]1CCCN(S(=O)(=O)N2CC(C#N)C2)C1 [Example 417, 1-(((3S)-1-((3-cyano-1-azetidinyl)sulfonyl)-3-piperidinyl)carbonyl)-N-(2-methoxy-4-methylbenzyl)-D-prolinamide]
1.5305 µM	N#CC1CN(S(=O)(=O)N2CCC[C@H](C(=O)N3CCC[C@@H]3C(=O)NCc3cccc(F)c3Cl)C2)C1 [Example 418, N-(2-chloro-3-fluorobenzyl)-1-(((3S)-1-((3-cyano-1-azetidinyl)sulfonyl)-3-piperidinyl)carbonyl)-D-prolinamide]
1.542 µM	C[C@H](C(=O)N[C@H](C)c1ccc(Cl)cc1F)N(C)C(=O)[C@@H]1CN(S(=O)(=O)N2CC(C#N)C2)CCO1 [Example 419, (2S)-N-((2R)-1-(((1R)-1-(4-chloro-2-fluorophenyl)ethyl)amino)-l-oxo-2-propanyl)-4-((3-cyano-1-azetidinyl)sulfonyl)-N-methyl-2-morpholinecarboxamide]
1.5455 µM	N#C[C@H]1C[C@H](S(=O)(=O)c2cccc(C(=O)N3CCCC[C@@H]3C(=O)NCc3ccc(Cl)nc3)c2)C1 [Example 420, (2R)-N-((6-chloro-3-pyridinyl)methyl)-1-((3-((trans-3-cyanocyclobutyl)sulfonyl)phenyl)carbonyl)-2-piperidinecarboxamide]
1.4335 µM	CS(=O)(=O)c1cc(C(=O)N2CCC[C@@H]2C(=O)N[C@@H](c2cc(F)c(Cl)cc2F)C2CC2)ccn1 [Example 421, N-((R)-(4-chloro-2,5-difluorophenyl)(cyclopropyl)methyl)-1-((2-(methylsulfonyl)-4-pyridinyl)carbonyl)-D-prolinamide]
1.5655 µM	CS(=O)(=O)N1CC(F)(c2cccc(C(=O)N3[C@@H](C(=O)N[C@@H](c4ccc(C(F)(F)F)cc4F)C4CC4)C[C@H]4C[C@H]43)c2)C1 [Example 422, (1R,3R,5R)-N-((R)-cyclopropyl(2-fluoro-4-(trifluoromethyl)phenyl)methyl)-2-(3-(3-fluoro-1-(methylsulfonyl)-3-azetidinyl)benzoyl)-2-azabicyclo[3.1.0]hexane-3-carboxamide]
1.5735 µM	N#CC1CN(S(=O)(=O)N2CCC[C@H](C(=O)N3CCC[C@@H]3C(=O)NCc3c(F)cc(F)c(F)c3F)C2)C1 [Example 423, 1-(((3S)-1-((3-cyano-1-azetidinyl)sulfonyl)-3-piperidinyl)carbonyl)-N-(2,3,4,6-tetrafluorobenzyl)-D-prolinamide]
1.5805 µM	O=C(NCc1ccc(C(F)(F)F)cc1)[C@H]1CCCN1C(=O)[C@H]1CCCN(S(=O)(=O)N2CC(Oc3ccc(Cl)cc3)C2)C1 [Example 424, 1-(((3S)-1-((3-(4-chlorophenoxy)-1-azetidinyl)sulfonyl)-3-piperidinyl)carbonyl)-N-(4-(trifluoromethyl)benzyl)-D-prolinamide]
1.5805 µM	NC(=O)[C@H]1C[C@@H](S(=O)(=O)N2CCC[C@H](C(=O)N3CCC[C@@H]3C(=O)NCc3ccc(C(F)(F)F)cc3)C2)C1 [Example 425, 1-(((3S)-1-((cis-3-carbamoylcyclobutyl)sulfonyl)-3-piperidinyl)carbonyl)-N-(4-(trifluoromethyl)benzyl)-D-prolinamide]
1.4595 µM	CS(=O)(=O)c1cccc(C(=O)N2CCC[C@@H]2C(=O)N[C@@H](c2ccc(Cl)c(F)c2)C2CC2)c1 [Example 426, N-((R)-(4-chloro-3-fluorophenyl)(cyclopropyl)methyl)-1-(3-(methylsulfonyl)benzoyl)-D-prolinamide]
1.5865 µM	N#CC1CN(S(=O)(=O)N2CCC[C@H](C(=O)N3C[C@@H](F)C[C@@H]3C(=O)NCc3cccc(C(F)(F)F)c3)C2)C1 [Example 427, (4S)-1-(((3S)-1-((3-cyano-1-azetidinyl)sulfonyl)-3-piperidinyl)carbonyl)-4-fluoro-N-(3-(trifluoromethyl)benzyl)-D-prolinamide]

SMILES	AC1.4
CS(=O)(=O)c1cccc(C(=O)N2C[C@H]3C[C@H]3[C@@H]2C(=O)N[C@@H](c2ccc(C(F)(F)F)cc2F)C2CC2)c1 [Example 407, (1R,2R,5S)-N-((R)-cyclopropyl(2-fluoro-4-(trifluoromethyl)phenyl)methyl)-3-(3-(methylsulfonyl)benzoyl)-3-azabicyclo[3.1.0]hexane-2-carboxamide]	1.427 µM

— patent US11780826B2 (Amgen Inc., priority 2017, dated 2023)
